target: T1, rat NaPi-2b (Rattus norvegicus, UniProt Q9JJ09); experiment: Sodium-dependent phosphate uptake of Xenopus oocytes which expressed NaPi-2b (32P); format: cell-based; settings: Xenopus oocytes expressing rat NaPi-2b, 32P radioactive phosphorus; read-out: IC50 (phosphate uptake inhibitory activity)
T1 construct: expressed in transfected cells; host or cells: Xenopus oocytes injected with cRNA
T1 sequence (Q9JJ09 1-695): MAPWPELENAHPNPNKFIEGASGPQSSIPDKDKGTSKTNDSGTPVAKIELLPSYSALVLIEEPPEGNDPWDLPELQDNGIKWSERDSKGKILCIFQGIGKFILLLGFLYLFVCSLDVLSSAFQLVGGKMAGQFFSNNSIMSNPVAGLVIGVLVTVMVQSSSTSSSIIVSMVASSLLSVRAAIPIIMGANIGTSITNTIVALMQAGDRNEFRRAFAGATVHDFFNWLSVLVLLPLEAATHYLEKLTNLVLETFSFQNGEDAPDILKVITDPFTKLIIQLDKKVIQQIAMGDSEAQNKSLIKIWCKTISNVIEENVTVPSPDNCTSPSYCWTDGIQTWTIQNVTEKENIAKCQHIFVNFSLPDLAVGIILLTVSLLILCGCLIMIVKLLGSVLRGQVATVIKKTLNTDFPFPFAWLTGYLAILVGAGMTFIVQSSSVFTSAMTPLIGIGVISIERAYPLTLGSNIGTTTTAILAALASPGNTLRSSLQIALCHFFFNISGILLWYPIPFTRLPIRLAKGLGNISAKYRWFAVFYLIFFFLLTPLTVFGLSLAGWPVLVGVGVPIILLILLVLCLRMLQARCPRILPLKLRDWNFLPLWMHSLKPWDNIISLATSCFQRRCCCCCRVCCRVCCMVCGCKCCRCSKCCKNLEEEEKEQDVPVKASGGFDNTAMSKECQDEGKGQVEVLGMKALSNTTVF
How it was run: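 Inhibition at 300 μM and 100 μM was read off one inhibition curve of 32P phosphate uptake. Uptake was measured in Xenopus oocytes cultured 2 days after injection of cRNA for cloned rat NaPi-2b.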

SMILES	IC50 [µM]
Cc1ccc(/C=N/NC(=O)c2cccnc2NC(=O)c2cccc(CN(CC(C)O)CC(C)O)c2)cc1 (stereo not drawn) [Compound 965, 3-{[Bis-(2-hydroxy-propyl)-amino]-methyl}-N-[3-(4-methyl-benzylidene-hydrazinocarbonyl)-pyridin-2-yl]-benzamide]	27.2
Cc1ccc(/C=N/NC(=O)c2cccnc2NC(=O)c2cccc(CN(CC(C)O)CC(C)O)c2)cc1C (stereo not drawn) [Compound 966, 3-{[Bis-(2-hydroxy-propyl)-amino]-methyl}-N-[3-(3,4-dimethyl-benzylidene-hydrazinocarbonyl)-pyridin-2-yl]-benzamide]	16
CC(O)CN(Cc1cccc(C(=O)Nc2ncccc2C(=O)N/N=C/c2ccc(Cl)c(C(F)(F)F)c2)c1)CC(C)O (stereo not drawn) [Compound 967, 3-{[Bis-(2-hydroxy-propyl)-amino]-methyl}-N-[3-(4-chloro-3-trifluoromethyl-benzylidene-hydrazinocarbonyl)-pyridin-2-yl]-benzamide]	6.57
O=C(Nc1cc2ccccc2cc1C(=O)N/N=C/c1cccc(F)c1)c1cccc(CN2CCN(CCO)CC2)c1 [Compound 969, N-[3-(3-Fluoro-benzylidene-hydrazinocarbonyl)-naphthalen-2-yl]-3-[4-(2-hydroxy-ethyl)-piperazin-1-ylmethyl]-benzamide]	< 3
Cc1ccc(/C=N/NC(=O)c2cc3ccccc3cc2NC(=O)c2cccc(CN3CCN(CCO)CC3)c2)cc1 [Compound 970, 3-[4-(2-Hydroxy-ethyl)-piperazin-1-ylmethyl]-N-[3-(4-methyl-benzylidene-hydrazinocarbonyl)-naphthalen-2-yl]-benzamide]	< 3
Cc1ccc(/C=N/NC(=O)c2cc3ccccc3cc2NC(=O)c2cccc(CN3CCN(CCO)CC3)c2)cc1C [Compound 971, N-[3-(3,4-Dimethyl-benzylidene-hydrazinocarbonyl)-naphthalen-2-yl]-3-[4-(2-hydroxy-ethyl)-piperazin-1-ylmethyl]-benzamide]	< 3
O=C(Nc1cc2ccccc2cc1C(=O)N/N=C/c1ccc(Cl)c(C(F)(F)F)c1)c1cccc(CN2CCN(CCO)CC2)c1 [Compound 972, N-[3-(4-Chloro-3-trifluoromethyl-benzylidene-hydrazinocarbonyl)-naphthalen-2-yl]-3-[4-(2-hydroxy-ethyl)-piperazin-1-ylmethyl]-benzamide]	< 3
COc1ccc(/C=N/NC(=O)c2cc3ccccc3cc2NC(=O)c2cccc(CN3CCN(CCO)CC3)c2)cc1 [Compound 973, 3-[4-(2-Hydroxy-ethyl)-piperazin-1-ylmethyl]-N-[3-(4-methoxy-benzylidene-hydrazinocarbonyl)-naphthalen-2-yl]-benzamide]	< 3
CC(O)CN(Cc1cccc(C(=O)Nc2cscc2C(=O)N/N=C/c2cccc(F)c2)c1)CC(C)O (stereo not drawn) [Compound 974, 3-{[Bis-(2-hydroxy-propyl)-amino]-methyl}-N-[4-(3-fluoro-benzylidene-hydrazinocarbonyl)-thiophen-3-yl]-benzamide]	12.6
Cc1cccc(/C=N/NC(=O)c2cscc2NC(=O)c2cccc(CN(CC(C)O)CC(C)O)c2)c1 (stereo not drawn) [Compound 975, 3-{[Bis-(2-hydroxy-propyl)-amino]-methyl}-N-[4-(3-methyl-benzylidene-hydrazinocarbonyl)-thiophen-3-yl]-benzamide]	17.4
Cc1ccc(/C=N/NC(=O)c2cscc2NC(=O)c2cccc(CN(CC(C)O)CC(C)O)c2)cc1 (stereo not drawn) [Compound 976, 3-{[Bis-(2-hydroxy-propyl)-amino]-methyl}-N-[4-(4-methyl-benzylidene-hydrazinocarbonyl)-thiophen-3-yl]-benzamide]	10.7
Cc1ccc(/C=N/NC(=O)c2cscc2NC(=O)c2cccc(CN(CC(C)O)CC(C)O)c2)cc1C (stereo not drawn) [Compound 977, 3-{[Bis-(2-hydroxy-propyl)-amino]-methyl}-N-[4-(3,4-dimethyl-benzylidene-hydrazinocarbonyl)-thiophen-3-yl]-benzamide]	10.1

The remaining lines, values ahead:

IC50 [µM]	SMILES
13.8	O=C(Nc1cscc1C(=O)N/N=C/c1cccc(F)c1)c1cccc(CN2CCN(CCO)CC2)c1 [Compound 980, N-[4-(3-Fluoro-benzylidene-hydrazinocarbonyl)-thiophen-3-yl]-3-[4-(2-hydroxy-ethyl)-piperazin-1-ylmethyl]-benzamide]
12.2	Cc1ccc(/C=N/NC(=O)c2cscc2NC(=O)c2cccc(CN3CCN(CCO)CC3)c2)cc1 [Compound 981, 3-[4-(2-Hydroxy-ethyl)-piperazin-1-ylmethyl]-N-[4-(4-methyl-benzylidene-hydrazinocarbonyl)-thiophen-3-yl]-benzamide]
8.05	Cc1ccc(/C=N/NC(=O)c2cscc2NC(=O)c2cccc(CN3CCN(CCO)CC3)c2)cc1C [Compound 982, N-[4-(3,4-Dimethyl-benzylidene-hydrazinocarbonyl)-thiophen-3-yl]-3-[4-(2-hydroxy-ethyl)-piperazin-1-ylmethyl]-benzamide]
8.31	O=C(Nc1cscc1C(=O)N/N=C/c1ccc(Cl)c(C(F)(F)F)c1)c1cccc(CN2CCN(CCO)CC2)c1 [Compound 983, N-[4-(4-Chloro-3-trifluoromethyl-benzylidene-hydrazinocarbonyl)-thiophen-3-yl]-3-[4-(2-hydroxy-ethyl)-piperazin-1-ylmethyl]-benzamide]
22.1	COc1ccc(/C=N/NC(=O)c2cscc2NC(=O)c2cccc(CN3CCN(CCO)CC3)c2)cc1 [Compound 984, 3-[4-(2-Hydroxy-ethyl)-piperazin-1-ylmethyl]-N-[4-(4-methoxy-benzylidene-hydrazinocarbonyl)-thiophen-3-yl]-benzamide]
29	Cc1ccc(/C=N/NC(=O)c2cc(F)ccc2NC(=O)c2cc(F)ccc2NC(=O)c2cccc(CN(CC(C)O)CC(C)O)c2)cc1C (stereo not drawn) [Compound 986, 2-(3-{[Bis-(2-hydroxy-propyl)-amino]-methyl}-benzoylamino)-N-[2-(3,4-dimethyl-benzylidene-hydrazinocarbonyl)-4-fluoro-phenyl]-5-fluoro-benzamide]
3.88	CC(O)CN(Cc1cccc(C(=O)Nc2ccc(F)cc2C(=O)Nc2ccc(F)cc2C(=O)N/N=C/c2cccc(F)c2)c1)CC(C)O (stereo not drawn) [Compound 988, 2-(3-{[Bis-(2-hydroxy-propyl)-amino]-methyl}-benzoylamino)-5-fluoro-N-[4-fluoro-2-(3-fluoro-benzylidene-hydrazinocarbonyl)-phenyl]-benzamide]
2.66	C/C(=N\NC(=O)c1cc(Br)ccc1NC(=O)c1cccc(CN(CC(C)O)CC(C)O)c1)c1cccc(F)c1 (stereo not drawn) [Compound 996, 3-{[Bis-(2-hydroxy-propyl)-amino]-methyl}-N-{4-bromo-2-[1-(3-fluoro-phenyl)-ethylidene-hydrazinocarbonyl]-phenyl}-benzamide]

same assay, conditions: phosphate uptake, oocytes expressing rat NaPi-2b; 300 μM, determined from inhibition curve

SMILES	inhibition at 300 µM [%]
COc1ccc(/C=N/NC(=O)c2cccnc2NC(=O)c2cccc(CN(CC(C)O)CC(C)O)c2)cc1 (stereo not drawn) [Compound 968, 3-{[Bis-(2-hydroxy-propyl)-amino]-methyl}-N-[3-(4-methoxy-benzylidene-hydrazinocarbonyl)-pyridin-2-yl]-benzamide]	52.7
CC(O)CN(Cc1cccc(C(=O)Nc2cscc2C(=O)N/N=C/c2ccc(Cl)c(C(F)(F)F)c2)c1)CC(C)O (stereo not drawn) [Compound 978, 3-{[Bis-(2-hydroxy-propyl)-amino]-methyl}-N-[4-(4-chloro-3-trifluoromethyl-benzylidene-hydrazinocarbonyl)-thiophen-3-yl]-benzamide]	74.1
COc1ccc(/C=N/NC(=O)c2cscc2NC(=O)c2cccc(CN(CC(C)O)CC(C)O)c2)cc1 (stereo not drawn) [Compound 979, 3-{[Bis-(2-hydroxy-propyl)-amino]-methyl}-N-[4-(4-methoxy-benzylidene-hydrazinocarbonyl)-thiophen-3-yl]-benzamide]	73.7

Further lines, results first:

inhibition at 300 µM [%]	SMILES
30.1	Cc1ccc(/C=N/NC(=O)c2sc(C(C)(C)C)cc2NC(=O)c2cccc(CN3CCN(CCO)CC3)c2)cc1C [Compound 991, N-[5-Tert-butyl-2-(3,4-dimethyl-benzylidene-hydrazinocarbonyl)-thiophen-3-yl]-3-[4-(2-hydroxy-ethyl)-piperazin-1-ylmethyl]-benzamide]
31.9	CC(O)CN(Cc1cccc(C(=O)Nc2ccsc2C(=O)N/N=C/c2cccc(F)c2)c1)CC(C)O (stereo not drawn) [Compound 992, 3-{[Bis-(2-hydroxy-propyl)-amino]-methyl}-N-[2-(3-fluoro-benzylidene-hydrazinocarbonyl)-thiophen-3-yl]-benzamide]
39.7	CC(O)CN(Cc1cccc(C(=O)Nc2ccsc2C(=O)N/N=C/c2ccc(Cl)c(C(F)(F)F)c2)c1)CC(C)O (stereo not drawn) [Compound 993, 3-{[Bis-(2-hydroxy-propyl)-amino]-methyl}-N-[2-(4-chloro-3-trifluoromethyl-benzylidene-hydrazinocarbonyl)-thiophen-3-yl]-benzamide]
42.1	CCN(CC)Cc1cccc(C(=O)Nc2ccsc2C(=O)N/N=C/c2cccc(F)c2)c1 [Compound 995, 3-Diethylaminomethyl-N-[2-(3-fluoro-benzylidene-hydrazinocarbonyl)-thiophen-3-yl]-benzamide]

Reference: patent US8134015B2, “Compound inhibiting in vivo phosphorous transport and medicine containing the same” (Kyowa Hakko Kirin Co., Ltd., priority 2003, dated 2012)
